Measurements taken from patent publication US20240051952A1, “HMOX1 INDUCERS” (Mitobridge Inc., priority 2019, published 2024).
“Also recorded” adds a separate entry of the source.

Experiments:
HbSS Townes sickle mice = assay: Heme-induced vaso-occlusion (stasis) in HbSS Townes sickle mice; assay type: in vivo, mouse; conditions: 1 h after heme infusion
Text: Townes-SS mice were gavaged once daily with Vehicle or the compound of Example 17 for 8 days. After the last gavage dorsal skin-fold chambers were implanted on the mice and 20-22 flowing venules were selected and mapped in the subcutaneous skin using intravital microscopy. Mice were then infused via the tail vein with Panhematin (3.2 μmols heme/kg body weight). One hour after infusion each venule was re-examined for microvascular stasis (no flow) and data are expressed as % stasis. Stasis values are means+SD. One-Way ANOVA with Dunnett's Multiple comparison to Vehicle ****P<0.0001
Dosing Scheme of HMOX Inducers to HbSS Townes Sickle Mice
HbSS Townes sickle mice were oral gavaged once daily with Vehicle or the compound of Example 17 listed below for 8 days. To minimize experimental inconsistency, fresh formulation was prepared every day and vortexed prior to drawing test article into syringe for each dosing, and dosing was performed by the same individual throughout the day. The last-day dose was administered by oral gavage 4 hours prior to hemin infusion described below. • 1. Vehicle (0.5% w/v Tween 80 in 0.45% w/v methyl cellulose) • 2. the compound of Example 17 (10 mg/kg PO dosing) • 3. the compound of Example 17 (25 mg/kg PO dosing) • 4. the compound of Example 17 (50 mg/kg PO dosing)
Measurement of Vaso-Occlusion (Stasis)
Male and female sickle mice, approximately 12 weeks of age, were weighed before surgery. Animals were anesthetized with a mixture of ketamine (106 mg/kg) and xylazine (7.2 mg/kg) and dorsal skin-fold chambers (DSFCs) were surgically implanted. On the same day anesthetized mice were placed on a special intravital microscopy stage, and 20-22 flowing subcutaneous venules in the DSFC window were selected and mapped. After venule selection and mapping, hemin chloride (2.677 mM; Frontier Scientific), dissolved in sterile saline containing sodium carbonate (11.36 mM; Sigma-Aldrich) and D-sorbitol (9.59 mM; Sigma-Aldrich), was filtered (0.22 μm), diluted 1:10 in sterile saline (267.7 μM hemin, final) and infused into the tail veins of mice (0.012 ml/g, 3.2 μmols heme/kg body weight). All of the selected venules were re-examined at 1 h after hemin infusion, and the number of static (no flow) venules was counted and expressed as percent stasis. Four hours after hemin infusion, mice were euthanized in a CO2 atmosphere and the liver, spleen and kidneys were removed, flash frozen, and stored at −85° C.

[1] = tested on: Human Heme Oxygenase-1 (HMOX-1); assay: ELISA assay to measure human heme oxygenase-1 (HMOX-1) in HepG2 lysate; assay type: cell-based; conditions: fold change of human HMOX1 protein levels relative to DMSO control, HepG2
Procedure, shortened: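 HepG2 cells lysed in PBS/0.5% Triton X-100/1 mM EDTA with protease inhibitors; lysate diluted 1:20. Sandwich ELISA: anti-HO-1 capture (8 μg/ml), biotinylated detection antibody (200 ng/ml), streptavidin-HRP, chemiluminescent read. Quantified against 12-point HO-1 standard curve from 20 ng/ml; incubations at 20 °C.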

Cn1c(Nc2nc3ccccc3o2)nc2cc(C(=O)NCCOCCO)ccc21 [Example 17, 2-(benzo[d]oxazol-2-ylamino)-N-(2-(2-hydroxyethoxy)ethyl)-1-methyl-1H-benzo[d]imidazole-5-carboxamide]
stasis (HbSS Townes sickle mice; 10 mg/kg PO once daily 8 days): ~17% | stasis (HbSS Townes sickle mice; 25 mg/kg PO once daily 8 days): ~12% | stasis (HbSS Townes sickle mice; 50 mg/kg PO once daily 8 days): ~5% | microvascular stasis vs Vehicle (HbSS Townes sickle mice; 10, 25, 50 mg/kg PO once daily 8 days): significantly reduced; also recorded: dose responsively inhibit microvascular stasis | Maximum Fold induction [1]: 11-40
